Laboratory results reported in US10251889B2, “Substituted pyrazolo[1,5-a]pyrimidine compounds as Trk kinase inhibitors” (Array BioPharma, Inc., priority 2009, dated 2019).

target: Jak2 (human Jak2 kinase domain, amino acids 808-1132) (Homo sapiens (Human), UniProt O60674); test: Jak2 inhibition assay (Omnia kinase assay); format: biochemical; conditions: read-out: Jak2 Enzyme (% inhibition at 1000 nM), Table 1; 1000 nM test compound
Sequence (O60674 808-1132): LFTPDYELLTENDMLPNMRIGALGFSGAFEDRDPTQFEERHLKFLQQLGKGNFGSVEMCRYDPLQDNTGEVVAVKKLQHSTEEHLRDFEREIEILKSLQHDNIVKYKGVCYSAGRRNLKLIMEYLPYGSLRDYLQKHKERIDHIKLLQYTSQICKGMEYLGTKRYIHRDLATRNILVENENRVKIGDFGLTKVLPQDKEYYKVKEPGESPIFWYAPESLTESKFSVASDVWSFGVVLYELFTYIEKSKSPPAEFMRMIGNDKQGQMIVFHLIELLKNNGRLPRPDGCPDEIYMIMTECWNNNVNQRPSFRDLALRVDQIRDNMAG

| Structure (SMILES) | inhibition at 1 µM [%] |
| --- | --- |
| COc1ncc(F)cc1[C@H]1CCCN1c1ccn2ncc(C(=O)NC3CCN(CCO)CC3)c2n1 [Example 159, (R)-5-(2-(5-fluoro-2-methoxypyridin-3-yl)pyrrolidin-1-yl)-N-(1-(2-hydroxyethyl)piperidin-4-yl)pyrazolo[1,5-a]pyrimidine-3-carboxamide] | 28.9 |
| CC(C)(O)CNC(=O)c1cnn2ccc(N3CCC[C@@H]3c3cncc(F)c3)nc12 [Example 111, (R)-5-(2-(5-fluoropyridin-3-yl)pyrrolidin-1-yl)-N-(2-hydroxy-2-methylpropyl)pyrazolo[1,5-a]pyrimidine-3-carboxamide] | 0.1 |
| COc1ncc(F)cc1[C@H]1CCCN1c1ccn2ncc(C(=O)NC(CO)CO)c2n1 [Example 160, (R)-N-(1,3-dihydroxypropan-2-yl)-5-(2-(5-fluoro-2-methoxypyridin-3-yl)pyrrolidin-1-y1)pyrazolo[1,5-a]pyrimidine-3-carboxamide] | 8.5 |
| O=C(NC1(CO)CC1)c1cnn2ccc(N3CCC[C@@H]3c3cncc(F)c3)nc12 [Example 107, (R)-5-(2-(5-fluoropyridin-3-yl)pyrrolidin-1-yl)-N-(1-(hydroxymethyl)cyclopropyl)pyrazolo [1,5-a]pyrimidine-3-carboxamide] | 7.1 |
| CC(C)(N)CNC(=O)c1cnn2ccc(N3CCC[C@@H]3c3cc(F)ccc3F)nc12 [Example 58, (R)—N-(2-amino-2-methylpropyl)-5-(2-(2,5-difluorophenyl)pyrrolidin-1-yl)pyrazolo[1,5-a]pyrimidine-3-carboxamide] | 4.7 |
| CNC(=O)c1cnn2ccc(N3C[C@H](O)C[C@@H]3c3cccc(F)c3)nc12 [Example 43, 5-((2R,4R)-2-(3-fluorophenyl)-4-hydroxypyrrolidin-1-yl)-N-methylpyrazolo[1,5-a]pyrimidine-3-carboxamide] | 4.2 |
| Cn1cc(F)cc([C@H]2CCCN2c2ccn3ncc(C(=O)NC4CCC4)c3n2)c1=O [Example 230, (R)-N-cyclobutyl-5-(2-(5-fluoro-1-methyl-2-oxo-1,2-dihydropyridin-3-yl)pyrrolidin-1-yl)pyrazolo[1,5-a]pyrimidine-3-carboxamide] | 53.3 |
| Cn1cc(F)cc([C@H]2CCCN2c2ccn3ncc(C(=O)N[C@H]4CC[C@H](O)CC4)c3n2)c1=O [Example 238, 5-((R)-2-(5-fluoro-1-methyl-2-oxo-1,2-dihydropyridin-3-yl)pyrrolidin-1-yl)-N-((trans)-4-hydroxycyclohexyl)pyrazolo[1,5-a]pyrimidine-3-carboxamide] | 58.9 |
| CC(C)NC(=O)c1cnn2ccc(N3[C@H](CO)CC[C@@H]3c3cncc(F)c3)nc12 [Example 215, 5-((2R,5S)-2-(5-fluoropyridin-3-yl)-5-(hydroxymethyl)pyrrolidin-1-yl)-N-isopropylpyrazolo[1,5-a]pyrimidine-3-carboxamide] | 28.3 |
| O=C(N[C@H]1CC[C@H](O)CC1)c1cnn2ccc(N3CCC[C@@H]3c3cccc(F)c3)nc12 [Example 35, 5-((R)-2-(3-fluorophenyl)pyrrolidin-1-yl)-N-((trans)-4-hydroxycyclohexyl)pyrazolo[1,5-a]pyrimidine-3-carboxamide] | 77.4 |
| CC(C)(C#N)NC(=O)c1cnn2ccc(N3CCC[C@@H]3c3cncc(F)c3)nc12 [Example 69, (R)—N-(2-cyanopropan-2-yl)-5-(2-(5-fluoropyridin-3-yl)pyrrolidin-1-yl)pyrazolo[1,5-a]pyrimidine-3-carboxamide] | 6 |
| COc1ncc(F)cc1[C@H]1CCCN1c1ccn2ncc(C(=O)NOCCOC(C)(C)C)c2n1 [Example 152, (R)-N-(2-tert-butoxyethoxy)-5-(2-(5-fluoro-2-methoxypyridin-3-yl)pyrrolidin-1-yl)pyrazolo[1,5-a]pyrimidine-3-carboxamide] | 7.6 |
| COc1ncc(F)cc1[C@H]1CCCN1c1ccn2ncc(C(=O)NC3CC3)c2n1 [Example 79, (R)—N-cyclopropyl-5-(2-(5-fluoro-2-methoxypyridin-3-yl)pyrrolidin-1-yl)pyrazolo[1,5-a]pyrimidine-3-carboxamide] | 54.8 |
| NS(=O)(=O)CCNC(=O)c1cnn2ccc(N3CCC[C@@H]3c3cc(F)ccc3F)nc12 [Example 47, (R)-5-(2-(2,5-difluorophenyl)pyrrolidin-1-yl)-N-(2-sulfamoylethyl)pyrazolo[1,5-a]pyrimidine-3-carboxamide] | 37.3 |
| CC(C)(O)CNC(=O)c1cnn2ccc(N3CCC[C@@H]3c3cc(F)ccc3F)nc12 [Example 17, (R)-5-(2-(2,5-difluorophenyl)pyrrolidin-1-yl)-N-(2-hydroxy-2-methylpropyl)pyrazolo[1,5-a]pyrimidine-3-carboxamide] | 5.6 |
| O=C(NC1CC1)c1cnn2ccc(N3CCC[C@@H]3c3cc(F)ccc3OCC(O)CO)nc12 (stereo partly drawn) [Example 210, N-cyclopropyl-5-((2R)-2-(2-(2,3-dihydroxypropoxy)-5-fluorophenyl)pyrrolidin-1-yl)pyrazolo[1,5-a]pyrimidine-3-carboxamide] | 32.3 |
| COc1ncc(F)cc1[C@H]1CCCN1c1ccn2ncc(C(=O)NC[C@@H](O)CO)c2n1 [Example 150, N-((R)-2,3-dihydroxypropyl)-5-((R)-2-(5-fluoro-2-methoxypyridin-3-yl)pyrrolidin-1-yl)pyrazolo[1,5-a]pyrimidine-3-carboxamide] | 8.9 |

| Structure (SMILES) | inhibition at 1 µM [%] |
| --- | --- |
| CC1(C)OCC(COc2ccc(F)cc2[C@H]2CCCN2c2ccn3ncc(C(N)=O)c3n2)O1 (stereo partly drawn) [Example 205, 5-((2R)-2-(2-((2,2-dimethyl-1,3-dioxolan-4-yl)methoxy)-5-fluorophenyl)pyrrolidin-1-yl)pyrazolo[1,5-a]pyrimidine-3-carboxamide] | 7.2 |
| C[C@@H](CO)NC(=O)c1cnn2ccc(N3CCC[C@@H]3c3cncc(F)c3)nc12 [Example 116, 5-((R)-2-(5-fluoropyridin-3-yl)pyrrolidin-1-yl)-N-((S)-1-hydroxypropan-2-yl)pyrazolo[1,5-a]pyrimidine-3-carboxamide] | 4.7 |
| COc1ccc(F)cc1[C@H]1CCCN1c1ccn2ncc(C(=O)NCC(C)(C)O)c2n1 [Example 49, (R)-5-(2-(5-fluoro-2-methoxyphenyl)pyrrolidin-1-yl)-N-(2-hydroxy-2-methylpropyl)pyrazolo[1,5-a]pyrimidine-3-carboxamide] | 17.2 |
| C[C@@H](O)[C@H](CO)NC(=O)c1cnn2ccc(N3CCC[C@@H]3c3cc(F)ccc3F)nc12 [Example 174, 5-((R)-2-(2,5-difluorophenyl)pyrrolidin-1-yl)-N-((2S,3R)-1,3-dihydroxybutan-2-yl)pyrazolo[1,5-a]pyrimidine-3-carboxamide] | 6.4 |
| O=C(NC1CCC[C@@H]1O)c1cnn2ccc(N3CCCC3c3cncc(F)c3)nc12 (stereo partly drawn) [Example 120, 5-((R)-2-(5-fluoropyridin-3-yl)pyrrolidin-1-yl)-N-((trans)-2-hydroxycyclopentyl)pyrazolo[1,5-a]pyrimidine-3-carboxamide] | 2.3 |
| CONC(=O)c1cnn2ccc(N3CCC[C@@H]3c3cccc(F)c3)nc12 [Example 75] | 15.1 |
| CC1(O)CCC(NC(=O)c2cnn3ccc(N4CCC[C@@H]4c4cc(F)ccc4F)nc23)CC1 (single isomer, unassigned; diastereomer 1) [Example 50] | 73.7 |
| O=C(NC[C@@H](O)CO)c1cnn2ccc(N3CCC[C@@H]3c3cc(F)ccc3C(F)(F)F)nc12 [Example 63, N—((R)-2,3-dihydroxypropyl)-5-((R)-2-(5-fluoro-2-(trifluoromethyl)phenyl)pyrrolidin-1-yl)pyrazolo[1,5-a]pyrimidine-3-carboxamide] | 33.1 |
| O=C(NCCN1CCNC1=O)c1cnn2ccc(N3CCC[C@@H]3c3cc(F)ccc3F)nc12 [Example 24, (R)-5-(2-(2,5-difluorophenyl)pyrrolidin-1-yl)-N-(2-(2-oxoimidazolidin-1-yl)ethyl) pyrazole[1,5-a]pyrimidine-3-carboxamide] | 11.5 |
| O=C(NC[C@@H](O)CO)c1cnn2ccc(N3CCC[C@@H]3c3cc(F)ccc3F)nc12 [Example 26, 5-((R)-2-(2,5-difluorophenyl)pyrrolidin-1-yl)-N—((R)-2,3-dihydroxypropyl)pyrazolo[1,5-a]pyrimidine-3-carboxamide] | 9.9 |
| COc1ccc(F)cc1[C@H]1CCCN1c1ccn2ncc(C(=O)N[C@H]3CC[C@H](O)CC3)c2n1 [Example 34, 5-((R)-2-(5-fluoro-2-methoxyphenyl)pyrrolidin-1-yl)-N-((trans)-4-hydroxycyclohexyl)pyrazolo[1,5-a]pyrimidine-3-carboxamide] | 96.9 |
| CC(C)(C)NC(=O)c1cnn2ccc(N3CCC[C@@H]3c3cc(F)c[nH]c3=O)nc12 [Example 202, (R)—N-tert-butyl-5-(2-(5-fluoro-2-oxo-1,2-dihydropyridin-3-yl)pyrrolidin-1-yl)pyrazolo[1,5-a]pyrimidine-3-carboxamide] | 11.5 |
| COCCOc1cc(F)cc([C@H]2CCCN2c2ccn3ncc(C(N)=O)c3n2)c1 [Example 78, (R)-5-(2-(3-fluoro-5-(2-methoxyethoxy)phenyl)pyrrolidin-1-yl)pyrazolo[1,5-a]pyrimidine-3-carboxamide] | 5.8 |
| CN(C)C(=O)c1cnn2ccc(N3CCC[C@@H]3c3cc(F)ccc3F)nc12 [Example 27, (R)-5-(2-(2,5-difluorophenyl)pyrrolidin-1-yl)-N,N-dimethylpyrazolo[1,5-a]pyrimidine-3-carboxamide] | 1.3 |
| CC(C)NC(=O)c1cnn2ccc(N3[C@@H](c4cncc(F)c4)CC[C@@]3(C)CO)nc12 [Example 219, 5-((2 S, 5R)-5-(5-fluoropyridin-3-yl)-2-(hydroxymethyl)-2-methylpyrrolidin-1-yl)-N-isopropylpyrazolo[1,5-a]pyrimidine-3-carboxamide] | 25.5 |
| O=C(NC1CC1)c1cnn2ccc(N3CCC[C@@H]3c3cc(F)ccc3OCCN3CCOCC3)nc12 [Example 87, (R)—N-cyclopropyl-5-(2-(5-fluoro-2-(2-morpholinoethoxy)phenyl)pyrrolidin-1-yl)pyrazolo[1,5-a]pyrimidine-3-carboxamide] | 37.2 |
